Active and inactive are the calls of the source. How the calls were made is not given here.
Experiment: yeast growth inhibition, transport mutant vs wild type, confirmation, post-Golgi transport mutant, OD600 growth rate (AID 839)
Details: yeast transport mutant vs control strains, stronger effect = higher value
[1] = measured here: mutant growth inhibition 20 uM, at 20 µM
[2] = measured here: wild type growth inhibition 20 uM, at 20 µM
[3] = measured here: wild type growth inhibition 40 uM, at 40 µM

| SMILES | growth inhibition (at 40 µM) | growth inhibition [1] [%] | growth inhibition [2] [%] | growth inhibition [3] [%] |
| --- | --- | --- | --- | --- |
| O=C(COc1ccc(Br)cc1F)NC1CCN(Cc2ccccc2)CC1 | 27.4% | 12.6 | 2.81 | 5.41 |
| Cc1cc(C(C)(C)C)ccc1OCCN1CCCC1 | 18.2% | 18.4 | 7.77 | 7.54 |
| Cc1ccc(OCC(O)CN2CCN(Cc3ccc4c(c3)OCO4)CC2)c(C)c1 (stereo unspecified) | 33% | 12.9 | 2.63 | 10 |
| Clc1ccc(Cn2nnc(-c3ccc(CN4CCOCC4)cc3)n2)cc1 | 26.7% | 11.9 | 8.16 | 12.6 |
| CC1CC(C)CN(CCOc2ccc(Cl)cc2Cl)C1 (stereo unspecified) | 46.7% | 30.7 | 8.64 | 14.7 |
| O=C(C1COc2ccccc2O1)N1CCN(Cc2ccc3c(c2)OCO3)CC1 (stereo unspecified) | 7.29% | 6.43 | -1.59 | 5.57 |
| Clc1cc(Br)ccc1OCCOCCN1CCOCC1 | 8.89% | 8.52 | 2.58 | 3.79 |
| CC1CN(CCCCOc2ccc(C(C)C)cc2)CC(C)O1 (stereo unspecified) | 26.4% | 12.1 | 2.42 | 7.83 |
| CC1CN(CC(O)COc2ccc(C(C)C)cc2)CC(C)O1 (stereo unspecified) | 8.85% | 5.56 | -2.84 | -1.47 |
| O=C(OCn1ncc(Cl)c(Cl)c1=O)c1ccc(C(F)(F)F)cc1 | 46.7% | 50.9 | 13.4 | 16.2 |
| CC(C)c1ccc(C(=O)CSc2n[nH]c(-c3ccncc3)n2)cc1 | 12.5% | 7.43 | 4.42 | 13.6 |
| C=C(C)C1CC=C(CN2CCC(C(=O)OCC)CC2)CC1 (stereo unspecified) | 1.06% (inactive) | -2.77 | 0.148 | 1.89 |
| CCOC(=O)COc1ccccc1C1Nc2ccccc2C(=O)N1c1cccc(Cl)c1 (stereo unspecified) | 21.1% | 19.4 | 13 | 24.8 |
| C=C(C)C1CC=C(CN2CC(C)OC(C)C2)CC1 (stereo unspecified) | 4.31% | 11.8 | 13.7 | 1.76 |
| CCCCCOc1ccc(Cl)cc1CN1CCOCC1 | 17.8% | 26 | 7.83 | -7.6 |
| CC1CCCN(CCOCCOc2ccc(Cl)cc2Br)C1 (stereo unspecified) | 53.2% | 23.4 | 8.13 | 12.7 |
| Cc1ccc(Cl)c(OCCCCN(C)Cc2ccccc2)c1 | 72.6% | 31.6 | 11.1 | 22.1 |
| N=c1c2c(-c3ccccc3)c(-c3ccccc3)n(Cc3ccco3)c2ncn1Cc1ccccc1 | 38.2% | 8.14 | 9.7 | 12.7 |
| O=C(COc1ccc(Cl)cc1Cl)NCCCN1CCOCC1 | 6.19% | 7.28 | 3.8 | 6.18 |
| CCCCCCOc1ccc(CN2CCN(CCO)CC2)cc1 | 33.4% | 20.7 | 7.37 | 13.6 |
| Cc1ccc(CN2CCN(/N=C/c3cc(Br)ccc3O)CC2)cc1 | 21.1% | 18.9 | 7.91 | 7.23 |
| O=S(=O)(c1ccc(Cl)cc1)N1CCN(C2CCN(Cc3ccccc3)CC2)CC1 | 10.4% | 7.74 | 0.396 | 3.66 |
| Cc1nc(NC(=O)c2ccccc2)sc1-c1csc(NCc2ccccc2)n1 | 32.7% | 20 | 6.67 | 15 |
| Cc1ccc(C(=O)c2c(NC(=O)c3ccncc3)sc3c2CCCC3)cc1 | 14.7% | 19.8 | 13.5 | 18.9 |

From PubChem BioAssay AID839 (SRMLSC, 2007)
